In US12570923B2, “Tuning sulfonation and controlling oleo-furan surfactant compositions” (SIRONIX RENEWABLES, INC., priority 2021, dated 2026):

Legend:
Format in all cases: physicochemical
[1] = Krafft point (temperature below which the surfactant forms a solid precipitate)
Method: (§1) Certain surfactant properties and performance metrics of synthesized surfactants structures according to General Structure 1 (GS1), including several exemplary surfactant blends prepared according to the methods disclosed previously herein, were measured. […] For example, the α-OMFS-12-1/O surfactant with a sulfonate on the surfactant's alkyl chain provides faster wetting kinetics, as compared to the ring sulfonate 4-OMFS-12-1/O which has slower fabric wetting kinetics yet generates more foam in high shear conditions, or the disulfonate surfactant sulfonated on both the ring and alkyl chain (4,α-OMFS-12-1/O) which has slower fabric wetting and generates less foam than either of the aforementioned monosulfonates surfactants, yet has a higher solubility that can be helpful in building product formulations. Accordingly, these differing performance metrics can be leveraged by selecting the particular disclosed surfactant structure corresponding to the performance metrics useful in a specific application of the surfactant structure.

[2] = Solubility in deionized water; conditions: deionized water at 20° C.
Method: Certain surfactant properties and performance metrics of synthesized surfactants structures according to General Structure 1 (GS1), including several exemplary surfactant blends prepared according to the methods disclosed previously herein, were measured.

[3] = Surface tension at critical micelle concentration; conditions: at CMC
Method: as §1

[4] = Critical micelle concentration
Method: as §1

SMILES | Krafft Point [1] [°C] | Solubility [2] [mg/mL] | Surface Tension at critical micelle concentration [3] [mN/m] | CMC (critical micelle concentration) [4] [ppm]
CCCCCCCCCCCC(=O)c1cc(S(=O)(=O)[O-])c(C)o1.[Na+] [Na^+ 4-OMFS-12-1/0] | <0 | 800 | 42 | 1480
CCCCCCCCCCC(C(=O)c1ccc(C)o1)S(=O)(=O)[O-].[Na+] (stereo not drawn) [Na^+ α-OMFS-12-1/0] | <0 | 800 | – | –
CCCCCCCCCCC(C(=O)c1cc(S(=O)(=O)O)c(C)o1)S(=O)(=O)O.N.N (stereo not drawn) [NH4^+4,α-OMFS-12-1/0] | <0 | 500 | 39 | 3545

Further lines, results first:

Krafft Point [1] [°C] | Solubility [2] [mg/mL] | Surface Tension at critical micelle concentration [3] [mN/m] | CMC (critical micelle concentration) [4] [ppm] | SMILES
<0 | – | – | – | CCCCCCCCCCCCCCCCC(C(=O)c1cc(S(=O)(=O)[O-])c(C)o1)S(=O)(=O)[O-].[Na+].[Na+] (stereo not drawn) [Na^+ 4,α-OMFS-18-1/0]
<0 | 600 | – | – | CCCCCCCCCCCCC(C(=O)c1cc(S(=O)(=O)[O-])c(C)o1)S(=O)(=O)[O-].[Na+].[Na+] (stereo not drawn) [Na^+ 4,α-OMFS-14-1/0]
<0 | 900 | – | – | CCCCCCCCCCC(C(=O)c1cc(S(=O)(=O)[O-])c(C)o1)S(=O)(=O)[O-].[Na+].[Na+] (stereo not drawn) [Na^+ 4,α-OMFS-12-1/0]
